From patent publication US20240190872A1, “FABI INHIBITORS FOR GRAM-NEGATIVE PATHOGENS” (THE BOARD OF TRUSTEES OF THE UNIVERSITY OF ILLINOIS, priority 2021, published 2024)
≈ marks a conversion by molar mass, not a printed value.

Tests used:
Format in all cases: cell-based
S. aureus ATCC 29213 = experiment: Antimicrobial susceptibility test (MIC), micro-dilution broth; conditions: for MIC S. aureus 29213: S. aureus ATCC 29213
From the text: (§1) Bacterial strains. S. aureus ATCC 29213, E. coli MG1655, E. coli BAA-2340, E. coli BAA-2469, E. coli BAA-2471, E. cloacae BAA-2341, E. cloacae BAA-2468, K. pneumoniae BAA-1705, K. pneumoniae BAA-2342, K. pneumoniae BAA-2470, K. pneumoniae BAA-2472, and K. pneumoniae BAA-2473 were obtained from ATCC. E. coli JW5503 and E. coli JW3596 were obtained from the KEIO Collection. E. cloacae ATCC 29893 was provided by W. van der Donk (UIUC). E. coli AR-0346, E. coli AR-0349, E. coli AR-0493, E. coli AR-0495, and K. pneumoniae AR-0347 were obtained from the CDC and FDA AR Isolate Bank. E. coli F20987, E. coli M66623, E. cloacae S28901.1, K. pneumoniae M14723, K. pneumoniae M67198, K. pneumoniae M67297, K. pneumoniae S20595, K. pneumoniae S47889, A. baumannii W41979, A. baumannii F19521, A. baumannii M13100, and A. baumannii WO22 were obtained from the University of Illinois Chicago Medical School. A. baumannii KB304, A. baumannii KB343, and A. baumannii KB357 were provided by J. Quale.
(§2) Antimicrobial susceptibility tests. Susceptibility testing was performed in biological triplicate, using the micro-dilution broth method as outlined by the Clinical and Laboratory Standards Institute. Bacteria were cultured with cation-adjusted Muller-Hinton broth (Sigma-Aldrich, Cat# 90922) in round-bottom 96-well plates (Corning, Cat# 3788). Human serum (pooled gender, 0.2 μm filtered) was purchased from BioIVT (Hicksville, NY).

E. coli ΔtolC (JW5503) = conditions: for MIC E. coli ΔtolC: efflux deficient E. coli ΔtolC; for % @ 0.5 (in brackets after MIC): 0.5 μg/mL
Method: (§3) The compounds synthesized, shown in Table 1, were evaluated against Gram-positive and Gram-negative reference strains (S. aureus 29213 and E. coli MG1655, respectively), as well as an efflux deficient E. coli strain (ΔtolC, JW5503).
as §1, §2

E. coli MG1655 = experiment: Antimicrobial susceptibility test (MIC); conditions: for % @ 32 (in brackets after MIC): E. coli MG1655, 32 μg/mL
From the text: as §1, §2

K. pneumoniae BAA 2472 = experiment: microbe, parasite or virus in culture; conditions: clinical isolate
Method: as §3, §1, §2

E. coli AR 0085 = experiment: microbe, parasite or virus in culture; conditions: clinical isolate
Method: as §2

E. coli AR 0048 = experiment: microbe, parasite or virus in culture; conditions: clinical isolate
Method: as §2

K. pneumoniae AR 0066 = experiment: microbe, parasite or virus in culture; conditions: clinical isolate
Method: as §2

K. pneumoniae AR 0113 = experiment: microbe, parasite or virus in culture; conditions: clinical isolate
Method: as §2

A. baumannii AR 0033 = experiment: microbe, parasite or virus in culture; conditions: clinical isolate
Method: as §2

A. baumannii AR 0273 = experiment: microbe, parasite or virus in culture; conditions: clinical isolate
Method: as §2

A. baumannii AR 0299 = experiment: microbe, parasite or virus in culture; conditions: clinical isolate
Method: as §2

K. pneumoniae AR 0560 = experiment: microbe, parasite or virus in culture; conditions: clinical isolate
Method: as §2

A. baumannii AR 0313 = experiment: microbe, parasite or virus in culture; conditions: clinical isolate
Method: as §2

Compound	MIC S. aureus 29213 (S. aureus ATCC 29213)	MIC E. coli ΔtolC (E. coli ΔtolC (JW5503))	MIC E. coli MG1655 (E. coli MG1655)	further results
Cc1c(CN(C)C(=O)/C=C/c2cnc3c(c2)CC2(CC(N)C2)C(=O)N3)oc2ccccc12 (centres unmarked)	0.016 mg/L (≈ 0.0372 µM)	0.062 mg/L (≈ 0.144 µM)	4 mg/L (≈ 9.29 µM)	
Cc1c(CN(C)C(=O)/C=C/c2cnc3c(c2)CC(NCCN)C(=O)N3)oc2ccccc12.Cl (centres unmarked)	0.5 mg/L	1 mg/L	> 32 mg/L	% @ 0.25 (in brackets after MIC) (S. aureus ATCC 29213; S. aureus ATCC 29213, 0.25 μg/mL): 80%; % @ 0.5 (in brackets after MIC) (E. coli ΔtolC (JW5503); E. coli ΔTolC): 50%; % @ 32 (in brackets after MIC) (E. coli MG1655): 35%
Cc1c(CN(C)C(=O)/C=C/c2cnc3c(c2)CC(NCCCN)C(=O)N3)oc2ccccc12.O=CO (centres unmarked)	0.250 mg/L	0.5 mg/L	>32 mg/L	
Cc1c(CN(C)C(=O)/C=C/c2cnc3c(c2)CC(N)C(=O)N3)oc2cccc(F)c12.Cl (centres unmarked)	0.031 mg/L	0.125 mg/L	8 mg/L	
Cc1c(CN(C)C(=O)/C=C/c2cnc3c(c2)CC(N)C(=O)N3)oc2ccc(F)cc12.Cl (centres unmarked)	0.125 mg/L	1 mg/L	> 32 mg/L	% @ 0.062 (in brackets after MIC) (S. aureus ATCC 29213; S. aureus ATCC 29213, 0.062 μg/mL): 60%; % @ 0.5 (in brackets after MIC) (E. coli ΔtolC (JW5503); E. coli ΔTolC): 60%; % @ 32 (in brackets after MIC) (E. coli MG1655): 40%
Cc1c(CN(C)C(=O)/C=C/c2cnc3c(c2)CC(N)C(=O)N3)oc2cc(F)ccc12.Cl (centres unmarked)	0.062 mg/L	0.5 mg/L	> 32 mg/L	% @ 32 (in brackets after MIC) (E. coli MG1655): 65%
Cc1c(CN(C)C(=O)/C=C/c2cnc3c(c2)CC(N)C(=O)N3)oc2c(F)cccc12.Cl (centres unmarked)	0.016 mg/L	0.062 mg/L	8 mg/L	% @ 4 (in brackets after MIC) (E. coli MG1655; E. coli MG1655, 4 μg/mL): 50-80%
Cc1c(CN(C)C(=O)/C=C/c2cnc3c(c2)CCC(CN)C(=O)N3)oc2ccccc12 (centres unmarked)				MIC K. pneumoniae BAA 2472 (K. pneumoniae BAA 2472): 32 mg/L (≈ 76.5 µM); MIC E. coli AR 0085 (E. coli AR 0085): 16 mg/L (≈ 38.2 µM); MIC E. coli AR 0048 (E. coli AR 0048): 16 mg/L (≈ 38.2 µM); MIC K. pneumoniae AR 0066 (K. pneumoniae AR 0066): 32 mg/L (≈ 76.5 µM); MIC K. pneumoniae AR 0113 (K. pneumoniae AR 0113): 32 mg/L (≈ 76.5 µM); MIC A. baumannii AR 0033 (A. baumannii AR 0033): 16 mg/L (≈ 38.2 µM); MIC A. baumannii AR 0273 (A. baumannii AR 0273): 32 mg/L (≈ 76.5 µM); MIC A. baumannii AR 0299 (A. baumannii AR 0299): 32 mg/L (≈ 76.5 µM); MIC K. pneumoniae AR 0560 (K. pneumoniae AR 0560): 16 mg/L (≈ 38.2 µM); MIC A. baumannii AR 0313 (A. baumannii AR 0313): 32 mg/L (≈ 76.5 µM)
Cc1c(CN(C)C(=O)/C=C/c2cnc3c(c2)CC2(CC(CN)C2)C(=O)N3)oc2ccccc12 (centres unmarked)				MIC K. pneumoniae BAA 2472 (K. pneumoniae BAA 2472): 32 mg/L (≈ 72 µM); MIC E. coli AR 0085 (E. coli AR 0085): 16 mg/L (≈ 36 µM); MIC E. coli AR 0048 (E. coli AR 0048): 32 mg/L (≈ 72 µM); MIC K. pneumoniae AR 0066 (K. pneumoniae AR 0066): 32 mg/L (≈ 72 µM); MIC K. pneumoniae AR 0113 (K. pneumoniae AR 0113): 32 mg/L (≈ 72 µM); MIC A. baumannii AR 0033 (A. baumannii AR 0033): 32 mg/L (≈ 72 µM); MIC A. baumannii AR 0273 (A. baumannii AR 0273): >32 mg/L; MIC A. baumannii AR 0299 (A. baumannii AR 0299): >32 mg/L; MIC K. pneumoniae AR 0560 (K. pneumoniae AR 0560): 32 mg/L (≈ 72 µM); MIC A. baumannii AR 0313 (A. baumannii AR 0313): >32 mg/L
NC1Cc2cc(C=CC(=O)N3CC4C=C(c5ccccc5)CC4C3)cnc2NC1=O (mixture of isomers)	0.062 mg/L	0.062 mg/L	16 mg/L	
NC1CCc2cc(C=CC(=O)N3CC4C=C(c5ccccc5)CC4C3)cnc2NC1=O (mixture of isomers)	0.031 mg/L	0.062 mg/L	8 mg/L	
Cc1c(CN(C)C(=O)C=Cc2cnc3c(c2)CC2(CC(CN)C2)C(=O)N3)oc2ccccc12 (mixture of isomers) [(±)-7]	0.031 mg/L	0.125 mg/L	16 mg/L	
Cc1c(CN(C)C(=O)C=Cc2cnc3c(c2)CC2(CCC(N)CC2)C(=O)N3)oc2ccccc12 (mixture of isomers) [(±)-8]	0.016 mg/L	0.062 mg/L	16 mg/L	
Cc1c(CN(C)C(=O)C=Cc2cnc3c(c2)CC2(CCC(CN)CC2)C(=O)N3)oc2ccccc12 (mixture of isomers) [(±)-9]	0.031 mg/L	0.062 mg/L	16 mg/L	
Cc1c(CN(C)C(=O)/C=C/c2cnc3c(c2)CC(CN)C(=O)N3)oc2ccccc12.Cl (racemic)	0.031 mg/L	0.125 mg/L	8 mg/L	
Cc1c(CN(C)C(=O)/C=C/c2cnc3c(c2)CC(CCN)C(=O)N3)oc2ccccc12.Cl (racemic)	0.016 mg/L	0.062 mg/L	8 mg/L	
Cc1c(CN(C)C(=O)/C=C/c2cnc3c(c2)CCC(CCN)C(=O)N3)oc2ccccc12 (racemic) [(±)-13]	0.062 mg/L (≈ 0.143 µM)	0.125 mg/L (≈ 0.289 µM)	32 mg/L (≈ 74 µM)	
Cc1c(CN(C)C(=O)/C=C/c2cnc3c(c2)CCC(N)C(=O)N3)oc2ccccc12 (racemic) [drawing 87]	0.016 mg/L (≈ 0.0396 µM)	0.031 mg/L (≈ 0.0766 µM)	4 mg/L (≈ 9.89 µM)	
Cc1c(CN(C)C(=O)/C=C/c2cnc3c(c2)CCC(N)C(=O)N3)oc2ccccc12 (racemic) [drawing 108]	0.016 mg/L (≈ 0.0396 µM)	0.031 mg/L (≈ 0.0766 µM)	4 mg/L (≈ 9.89 µM)	
Cc1c(CN(C)C(=O)/C=C/c2cnc3c(c2)CC(N)C(=O)N3)oc2ccccc12.Cl (racemic) [reference compound]	0.03125 mg/L	0.062 mg/L	4 mg/L	
Cc1c(CN(C)C(=O)/C=C/c2ccc3c(c2)CCC(N)C(=O)N3)oc2ccccc12 (single isomer, unassigned) [Isomer 1]				MIC K. pneumoniae BAA 2472 (K. pneumoniae BAA 2472): >32 mg/L; MIC E. coli AR 0085 (E. coli AR 0085): >32 mg/L; MIC E. coli AR 0048 (E. coli AR 0048): >32 mg/L; MIC K. pneumoniae AR 0066 (K. pneumoniae AR 0066): >32 mg/L; MIC K. pneumoniae AR 0113 (K. pneumoniae AR 0113): >32 mg/L; MIC A. baumannii AR 0033 (A. baumannii AR 0033): >32 mg/L; MIC A. baumannii AR 0273 (A. baumannii AR 0273): >32 mg/L; MIC A. baumannii AR 0299 (A. baumannii AR 0299): >32 mg/L; MIC K. pneumoniae AR 0560 (K. pneumoniae AR 0560): >32 mg/L; MIC A. baumannii AR 0313 (A. baumannii AR 0313): >32 mg/L
Cc1c(CN(C)C(=O)/C=C/c2ccc3c(c2)CCC(N)C(=O)N3)oc2ccccc12 (single isomer, unassigned) [Isomer 2]				MIC K. pneumoniae BAA 2472 (K. pneumoniae BAA 2472): 4 mg/L (≈ 9.91 µM); MIC E. coli AR 0085 (E. coli AR 0085): 2 mg/L (≈ 4.96 µM); MIC E. coli AR 0048 (E. coli AR 0048): 4 mg/L (≈ 9.91 µM); MIC K. pneumoniae AR 0066 (K. pneumoniae AR 0066): 4 mg/L (≈ 9.91 µM); MIC K. pneumoniae AR 0113 (K. pneumoniae AR 0113): 8 mg/L (≈ 19.8 µM); MIC A. baumannii AR 0033 (A. baumannii AR 0033): 2 mg/L (≈ 4.96 µM); MIC A. baumannii AR 0273 (A. baumannii AR 0273): 4 mg/L (≈ 9.91 µM); MIC A. baumannii AR 0299 (A. baumannii AR 0299): 2 mg/L (≈ 4.96 µM); MIC K. pneumoniae AR 0560 (K. pneumoniae AR 0560): 4 mg/L (≈ 9.91 µM); MIC A. baumannii AR 0313 (A. baumannii AR 0313): 4 mg/L (≈ 9.91 µM)
Cc1c(CN(C)C(=O)/C=C/c2cnc3c(c2)CCC(N)C(=O)N3)oc2ccccc12 (single isomer, unassigned) [drawing 109]	0.125 to 0.250 mg/L	> 1 mg/L	> 32 mg/L	% @ 1 (in brackets after MIC) (E. coli ΔtolC (JW5503); E. coli ΔTolC, 1 μg/mL): 50%; % @ 32 (in brackets after MIC) (E. coli MG1655): 20%
Cc1c(CN(C)C(=O)/C=C/c2cnc3c(c2)CCC(N)C(=O)N3)oc2ccccc12 (single isomer, unassigned) [drawing 110]	0.004 to 0.008 mg/L	0.031 mg/L (≈ 0.0766 µM)	2 mg/L (≈ 4.94 µM)	% @ 0.016 (in brackets after MIC) (E. coli ΔtolC (JW5503); E. coli ΔTolC, 0.016 μg/mL): 40-95%
Cc1c(CN(C)C(=O)/C=C/c2cnc3c(c2)CCC(=O)N3)oc2ccccc12 [drawing 82, reference compound]	0.008 to 0.016 mg/L	0.031 mg/L (≈ 0.0826 µM)		
